Results as given in the supplement of paper PMC10307832.

Tests used:
Assay in all cases: relative viability (nuclei count vs DMSO), 5 days (fraction); higher = more cells survive
[1] = compound: C1=CC2=C(C=C(C(=C2N=C1)O)N=NC3=CC4=C(C=C3)C=C(C=C4)S(=O)(=O)O)S(=O)(=O)O + Nc1ncn([C@H]2C[C@H](O)[C@@H](CO)O2)c(=O)n1 [Decitabine] (partner 2 µM)
In short: (§1)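 Each reported value is a median over duplicate plates. It expresses relative viability: treated-well nuclei count divided by vehicle-well nuclei count. Lung cancer cell lines in 1536-well plates were dosed by pin tool a day after seeding, alone with one drug or with a fixed anchor-drug dose plus five library-drug doses (not always all listed) in √10 steps, and nuclei were counted after 5 days.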

AT-7519 + AZD7762 = compound: O=C(NC1CCNCC1)c1n[nH]cc1NC(=O)c1c(Cl)cccc1Cl [AT-7519] + NC(=O)Nc1cc(-c2cccc(F)c2)sc1C(=O)N[C@H]1CCCNC1 [AZD7762] (partner 0.2 µM)
In short: as §1

AT-7519 + Trametinib = compound: O=C(NC1CCNCC1)c1n[nH]cc1NC(=O)c1c(Cl)cccc1Cl [AT-7519] + CC(=O)Nc1cccc(-n2c(=O)n(C3CC3)c(=O)c3c(Nc4ccc(I)cc4F)n(C)c(=O)c(C)c32)c1 [Trametinib] (partner 0.02 µM)
In short: as §1

[2] = compound: C1=CC2=C(C=C(C(=C2N=C1)O)N=NC3=CC4=C(C=C3)C=C(C=C4)S(=O)(=O)O)S(=O)(=O)O + CS(=O)(=O)N1CCN(Cc2cc3nc(-c4cccc5[nH]ncc45)nc(N4CCOCC4)c3s2)CC1 [Pictilisib] (partner 1 µM)
In short: as §1

Cell Line	relative viability ([1]; first compound 0.08 µM)	relative viability ([1]; first compound 0.253 µM)	relative viability ([1]; first compound 0.8 µM)	relative viability ([1]; first compound 2.53 µM)	relative viability ([1]; first compound 8 µM)	relative viability (AT-7519 + AZD7762; first compound 0.01 µM)	relative viability (AT-7519 + AZD7762; first compound 0.03162 µM)	relative viability (AT-7519 + AZD7762; first compound 0.3162 µM)	relative viability (AT-7519 + AZD7762; first compound 1 µM)	relative viability (AT-7519 + Trametinib; first compound 0.01 µM)	relative viability (AT-7519 + Trametinib; first compound 0.03162 µM)	relative viability (AT-7519 + Trametinib; first compound 0.3162 µM)	relative viability (AT-7519 + Trametinib; first compound 1 µM)	relative viability ([2]; first compound 0.08 µM)	relative viability ([2]; first compound 0.253 µM)	relative viability ([2]; first compound 0.8 µM)	relative viability ([2]; first compound 2.53 µM)	relative viability ([2]; first compound 8 µM)
HCC-827	0.402	0.311	0.297	0.342	0.306	0.215	0.17	0.21	0.237	0.488	0.519	0.542	0.28	1.09	1.07	0.801	1.02	0.992
HOP-62	0.186	0.206	0.24	0.254	0.228	0.589	0.557	0.621	0.743	0.344	0.347	0.401	0.176	0.842	0.707	0.651	0.723	0.691
IA-LM														0.302	0.312	0.283	0.347	0.322
LC-2-ad	0.909	0.744	0.834	0.808	0.812	0.77	0.844	0.826	0.945	0.892	0.936	0.933	0.506	0.429	0.476	0.532	0.405	0.423
LCLC-97TM1	0.217	0.29	0.198	0.25	0.204	0.24	0.294	0.335	0.394	0.175	0.173	0.224	0.117		0.239		0.149	0.222
LCLC-103H	0.811	0.774	0.655	0.744	0.732	0.8	0.739	0.807	0.901	0.686	0.682	0.72	0.587	0.662	0.625	0.489	0.615	0.705
LK-2	0.417	0.254	0.201	0.384	0.296	0.456	0.329	0.347	0.19	0.643	0.67	0.716	0.271	0.677	0.522	0.613	0.541	0.552
LOU-NH91	0.865	0.791	0.834	0.791	0.841	0.755	0.79	0.643	0.713	0.805	0.774	0.792	0.726	0.57	0.523	0.539	0.486	0.524
NCI-H520	0.525	0.519	0.542	0.468	0.508					0.741	0.494	0.673	0.229	0.298	0.282	0.332	0.26	0.269
NCI-H522	0.561	0.644	0.689	0.683	0.6	1	0.661	0.859	0.904	0.717	0.835	0.757	0.717					
NCI-H661	0.566	0.446	0.58	0.551	0.573					0.549	0.565	0.508	0.203	0.372	0.345	0.359	0.517	0.353
NCI-H1299														0.755	0.823	0.821	0.87	0.623
NCI-H1563														0.623	0.638	0.653	0.626	0.701
NCI-H1648		0.525			0.551	0.63		0.578	1.12	0.39		0.366	0.335					
NCI-H1650	0.438	0.37	0.511	0.447	0.318					0.634	0.538	0.449	0.223	0.645	0.587	0.529	0.648	0.596
NCI-H1703								0.152	0.148					0.264	0.232	0.265	0.246	0.197
NCI-H2009	0.351	0.327	0.358	0.373	0.297					0.306	0.287	0.25	0.181	0.789	0.82	0.757	0.747	0.761
NCI-H2023	0.24	0.243	0.258	0.24	0.19					0.541	0.566	0.437	0.131	0.218	0.261	0.257	0.251	0.298
NCI-H2228										0.441	0.426	0.421	0.247	0.435	0.427	0.289	0.567	0.291
NCI-H2342	0.793	0.705	0.724	0.806	0.705	0.514	0.507	0.508	0.447	0.779	0.784	0.809	0.817					
SK-LU-1	0.795	0.679	0.664	0.616	0.655					0.498	0.46	0.416	0.309	0.615	0.55	0.57	0.61	0.621
SK-MES-1	0.39	0.362	0.336	0.405	0.367					0.535	0.607	0.537	0.461	0.444	0.354	0.376	0.328	0.377
SW 900	0.442	0.412	0.448	0.473	0.538	0.637	0.616	0.677	0.477	0.986	0.744	0.659	0.401					
SW 1573	0.55	0.494	0.419	0.494	0.275					0.603	0.494	0.37	0.109	0.449	0.431	0.475	0.447	0.523
